In publication PMC12267067, “Targeting GRPR for sex hormone-dependent cancer after loss of E-cadherin” (Nature, 2025):
One block for each molecule: values may come before it.

Columns and labels:
[1] = Metabolic stability assay (liver microsomes); type: in vitro ADME, mouse
Procedure: Each compound was diluted to a final concentration of 1 µM in 100 mM phosphate buffer (pH 7.4) containing 0.5 mg ml^−1 mouse liver microsomes, 1 mM NADPH regenerating system and 1 mM MgCl2 and incubated at 37 °C for 1 h. At various time points (0, 2, 10, 20, 40 and 60 min), one volume of ice-cold acetonitrile was added and the supernatants were analysed by LC–MS/MS. To obtain a stability curve, the percentage of remaining test compound at each time point was determined by monitoring the peak area. The half-life was estimated from the slope of the initial linear range of the logarithmic curve of the remaining compound (percentage) against time, assuming first-order kinetics.
Analyses were done on a Shimadzu 8030 LC–MS instrument. Chromatographic separations were done at 40 °C using a 2.6-µm C18 Kinetex column (50 × 2.1 mm; Phenomenex). The mobile phase flow rate was set to 0.5 ml min^−1 and the following program applied for the elution: 0 min, 5% B; 0–1.2 min, 5–95% B; 1.2–1.4 min, 95% B; 1.4–1.42 min, 95-5% B; and 1.42–2.8 min, 5% B (solvent A, 0.05% formic acid in water; solvent B, acetonitrile). The injection volume was 1 µl. The mass spectrometer was interfaced with the liquid-chromatography system using an electrospray ion source. The nitrogen nebulizing gas flow was set to 1.5 l min^−1 and the drying gas flow to 15 ml min^−1. […]

GRPR mRNA in MCF7 cells = assay: Pharmacological targeting of ERα: GRPR mRNA in MCF7 cells; type: cell-based, human; conditions: 17β-estradiol 100 nM or ICI 182,780 1 µM
Procedure: (§1) RNA (3 µg) was reverse transcribed using M‐MLV reverse transcriptase (Invitrogen), according to the manufacturer’s protocol. The newly synthesized cDNA was used as a template for qPCR with the iTaq Universal SYBR Green Supermix. Technical triplicates were used for each sample and the quantified RNA normalized against TBP (human) or Hprt (mouse) as housekeeping transcripts (Supplementary Tables 9 and 10).
(§2) For hormone depletion, FCS was stripped using the dextran-coated charcoal method. In brief, Norit activated charcoal (C6241-5G, Sigma-Aldrich, final concentration of 0.25%) and Dextran T-70 (31390, Sigma-Aldrich, final concentration of 0.0025%) in 0.25 M sucrose/1.5 mM MgCl2/10 mM HEPES (H4034, Sigma-Aldrich), pH 7.4, were incubated overnight at 4 °C. The volume equivalent to the volume of the FCS to strip was pipetted into a new 50 ml tube and centrifugated at 500g for 10 min to remove the supernatant. The FCS was incubated with the activated charcoal for 12 h at 4 °C. The treated FCS was then filtered through a 0.22-µM pore filter to ensure sterility and mixed with the appropriate phenol red-free medium and PS. Cells were collected using phenol red-free trypsin and starved for oestrogen using phenol red-free/10% stripped FCS for four days. […]

[2] = biological target: T1, ERα in 1057 mouse melanoma cells (Mus musculus, UniProt P19785); assay: Western blot of ERα after ICI; type: cell-based; conditions: 1057 cells, ICI 1 μM, 24 h
T1 construct: Effect of ICI treatment on ERα protein levels in murine 1057 melanoma cells; endogenous in cells; host or cells: 1057 mouse melanoma cells (female, ΔEcad, Esr1-positive)
T1 sequence (P19785 1-599): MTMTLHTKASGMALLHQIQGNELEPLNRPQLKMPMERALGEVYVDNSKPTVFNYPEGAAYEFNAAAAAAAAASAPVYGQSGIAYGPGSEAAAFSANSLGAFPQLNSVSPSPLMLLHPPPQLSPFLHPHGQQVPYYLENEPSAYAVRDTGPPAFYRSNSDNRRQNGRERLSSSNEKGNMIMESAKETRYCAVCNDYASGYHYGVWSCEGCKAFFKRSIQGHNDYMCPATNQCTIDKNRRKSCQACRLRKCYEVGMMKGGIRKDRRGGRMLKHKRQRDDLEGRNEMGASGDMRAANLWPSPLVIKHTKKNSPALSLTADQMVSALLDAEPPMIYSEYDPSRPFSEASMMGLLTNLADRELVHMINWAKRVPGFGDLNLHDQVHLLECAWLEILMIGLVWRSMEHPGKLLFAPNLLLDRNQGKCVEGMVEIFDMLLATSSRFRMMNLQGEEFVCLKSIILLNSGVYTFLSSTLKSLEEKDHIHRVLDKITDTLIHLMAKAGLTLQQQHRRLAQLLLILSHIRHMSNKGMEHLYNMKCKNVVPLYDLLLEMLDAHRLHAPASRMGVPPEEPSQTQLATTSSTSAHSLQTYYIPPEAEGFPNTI
Procedure: (§3) Whole-cell lysates were prepared and analysed as described previously. The primary antibodies used were: E-cadherin (610182, BD Transduction Laboratories, dilution 1/1,000); ERα (MA1-27107, Invitrogen, dilution 1/500); YAP (14074, Cell Signaling, dilution 1/1,000); β-actin (A5441, Sigma, dilution 1/5,000); and vinculin (4650, Cell Signaling, dilution 1/5,000). All raw data are provided in Supplementary Fig. 1.

[3] = test system: 1057 ΔEcad melanoma cells; assay: ICI/Fulvestrant experiments: lung metastases after tail-vein injection of 1057 cells; type: in vivo, C57BL/6J mice
Procedure: Mouse and human melanoma cells (5 × 10^5) were suspended in 200 µl PBS and injected into the tail veins of eight-week-old C57BL/6J and NSG mice, respectively. Mice were monitored daily and weighed twice weekly. Euthanasia and autopsy were performed following 20% weight loss or reaching ethical end points.
Right lungs were imaged using a Leica MZFLIII binocular microscope with a Scion camera. Metastases were quantified in ImageJ, with macro-metastases (bigger than 0.1 mm) and micro-metastases (0.1 mm or smaller).
In vitro pre-treatment: 1057 melanoma cells (5 × 10^5) were pretreated for 3 days with 1 µM ICI before tail-vein injection. In vivo treatment: 1057 melanoma cells (5 × 10^5) were injected into C57BL/6J mice, followed by […] Fulvestrant (Zentiva) 3 h after injection, then weekly for 3 weeks. Mice were euthanized on day 25 after injection, and lung metastases were assessed by PCR-based Cre transgene detection. DNA was extracted from lung tissue and metastasis burden was analysed statistically.

[4] = test system: Grpr expression in ESR1pos 1057 melanoma cells; assay: Pharmacological targeting of ERα: Grpr expression in 1057 cells; type: cell-based, mouse; conditions: 100 nM E2 or 1 µM ICI 182,780, 72 h, after oestrogen starvation for four days
Procedure: as §1, §2

[5] = test system: mouse melanoma cell lines (1057, 1064, 1181, 1039, 1456, 1014); assay: Matrigel invasion assay, mouse melanoma cells; type: cell-based; conditions: 24 h
Procedure: Matrigel invasion assays were done in transwell plates with 8.0-µm pores (353097, Falcon) coated with 100 µl of 200 µg ml^−1 Matrigel. Depending on the experiments, cells were seeded directly or 24 h after transfection in low-serum medium (0.5% FCS for murine cells and 1% for human cell lines) with 10 nM GRP, 1 µM RC-3095, and/or 1 µM IC 182,780, or in 10% FCS. Then, 24 hours after stimulation, inserts were washed with PBS and non-invading cells were removed. Cells in the inserts were fixed in methanol at −20 °C overnight. The inserts were rinsed and the membrane carefully removed using a sharp scalpel. The membrane was mounted in prolong glass DAPI (1.5 µg ml^−1). Assays were performed in triplicate and automatic counting of invading cells was done using an Image/Fiji macro (10.5281/zenodo.14509394). Sequences of siRNAs are given in Supplementary Table 11.

GRPR, Gαq/11 activation = assay: IP1 detection (HTRF IP-one Gq kit); type: cell-based, mouse; conditions: 4,000 cells, 30 min, 37 °C, StimB buffer, 10 nM GRP, 1 µM RC-3095, 1 µM ICI-182,780 (pre-treatment)
Procedure: IP1 levels were quantified using the HTRF IP-one Gq detection kit (62IPAPEB, Revvity) following the manufacturer’s protocol. We treated 4,000 cells for 30 min at 37 °C in StimB buffer with 10 nM GRP, 1 µM RC-3095, 1 µM ICI-182,780 or DMSO. FRET signals (620 nm and 665 nm, excitation at 385 nm) were measured using a Clariostar plate reader (BMG Labtech).

[6] = test system: Daju human melanoma cells; assay: RT-qPCR and western blot of ESR1/ERα after iCRT3; type: cell-based; conditions: iCRT3 80 μM, 48 h
Procedure: as §1, §3

[7] = test system: ΔEcad mouse 1057 melanoma cells; assay: RT-qPCR of β-catenin targets, Esr1 and Grpr after β-catenin inhibition; type: cell-based; conditions: ΔEcad mouse 1057 cells, iCRT3 10 μM, 48 h (with siRNA targeting Ctnnb1)
Procedure: as §1

metabolic stability, comparison of the two GRPR antagonists ([1]; RC-3095 versus PD-176252, murine plasma and liver microsomes): higher metabolic stability
Structure (SMILES): CC(C)C[C@@H](CN[C@@H](CC(C)C)C(N)=O)NC(=O)[C@H](Cc1c[nH]cn1)NC(=O)CNC(=O)[C@@H](NC(=O)[C@H](C)NC(=O)[C@H](Cc1c[nH]c2ccccc12)NC(=O)[C@H](CCC(N)=O)NC(=O)[C@H]1Cc2c([nH]c3ccccc23)CN1)C(C)C [RC-3095]

ERα protein level [2]: reduced
Structure (SMILES): C[C@]12CC[C@@H]3c4ccc(O)cc4C[C@@H](CCCCCCCCC[S+]([O-])CCCC(F)(F)C(F)(F)F)[C@H]3[C@@H]1CC[C@@H]2O (stereo partly shown) [ICI 182,780]
GRPR mRNA expression (GRPR mRNA in MCF7 cells): significantly decreased
Visible metastases (%): mice with visible lung metastases / mice injected [3]: 1/6
mice with no metastases ([3]; Fulvestrant 50 mg per kg 3 h after injection of 1057 cells and weekly for three weeks, day 25): 5 of 6
Metastatic burden in lungs, qPCR for the 1057-specific Cre transgene ([3]; Fulvestrant-treated mice (50 mg per kg), day 25): reduced
Metastatic burden in lungs, qPCR for the 1057-specific Cre transgene ([3]; ICI-pretreated 1057 cells, day 25): reduced
mice with no visible metastases ([3]; mice injected with ICI-pretreated 1057 cells (3 days, 1 µM), day 25, control 1 of 11): 9 of 13
Grpr expression [4]: reduced it
invasion potential of 1057 cells, ICI alone ([5]; 1 µM ICI without GRP): no effect
invasion (number of invading cells), GRPR-positive mouse lines ([5]; 1057 (also 1064, GRPR-transduced 1014 and 1181 for RC-3095), 10 nM GRP, 1 µM RC-3095 and/or 1 µM ICI, Matrigel 200 µg ml−1, 0.5% FCS): significantly reduced
invasion (number of invading cells), Grpr-negative mouse lines ([5]; 1181 male Ecad, 1039 female Ecad, 1456 male ΔEcad, 10 nM GRP and/or 1 µM ICI): no effect
IP1 production, GRPR-positive cells (GRPR, Gαq/11 activation): reduced IP1 production

Metabolic stability: t1/2 ([1]; mouse, pH 7.4): 1.5 ± 0.1 min
Structure (SMILES): COc1ccc(C2(CNC(=O)[C@](C)(Cc3c[nH]c4ccccc34)NC(=O)Nc3ccc([N+](=O)[O-])cc3)CCCCC2)nc1 [PD-176252]

Structure (SMILES): CCc1ccc(-c2nc(CSCC(=O)NCCc3ccccc3)c(C)o2)cc1 [iCRT3]
ERα levels at RNA and protein level [6]: reduction
GRP-induced invasion after β-catenin inhibition ([5]; 1057 cells, iCRT3 and/or GRP): reduced GRP-induced invasion
expression of Nkd1, Esr1 and Grpr (RT-qPCR) [7]: decreased the expression of Nkd1, Esr1 and Grpr

Structure (SMILES): C[C@]12CC[C@@H]3c4ccc(O)cc4CC[C@H]3[C@@H]1CC[C@@H]2O [E2, 17β-oestradiol]
GRPR mRNA expression (GRPR mRNA in MCF7 cells): increased GRPR
Grpr expression [4]: increased Grpr expression
